# In patent publication US20250011881A1, “MYC-HSF1 DUAL AMPLIFICATION AS A BIOMARKER FOR CANCER TREATMENT” (The Trustees of Indiana University, priority 2023, published 2025):
# “And” between values parts separate entries of the source, which are not always exact repeats. Equal values may be shown once. Where a name gives a salt, the structure may show the parent alone.
# Tested on: ovarian cancer cells with (OVCAR8, OVCAR4) or without (OVSAHO, CAOV3) MYC-HSF1 amplification
# Test: Epigenetic inhibitor drug screen, cell viability (Cell Titer Blue)
# Format: cell-based
# Conditions: not given
row,Compound,Non Amp - AMP (POC) 10 uM [POC]
1,CC(C)(C)c1nc2c3cc[nH]c(=O)c3c3cc(F)ccc3c2[nH]1 [Pyridone 6],−0.4008
2,"C/C=C1\NC(=O)[C@H]2CSSCC/C=C/[C@H](CC(=O)N[C@H](C(C)C)C(=O)N2)OC(=O)[C@H](C(C)C)NC1=O [Romidepsin (FK229, depsipeptide), Romidepsin]",4.459
3,O=C(CCCCCCC(=O)NO)NO [SBHA],0.3146
4,O=C(NCC(=O)N1CCCC1)Nc1ccc2cnccc2c1 [SGC707],4.518
5,CCCC(=O)[O-].[Na+] [Sodium butyrate],−0.4466

# Same assay, conditions: 10 uM, 48 hrs; average relative cell viability (vs 1% DMSO) of non-amplified cells (OVSAHO, CAOV3) minus that of MYC-HSF1 amplified cells (OVCAR8, OVCAR4); positive = greater response in amplified cells
row,Compound,Non Amp - AMP (POC) 10 uM [POC]
1,O=C([C@@H](Cc1cccc(C(F)(F)F)c1)NS(=O)(=O)c1cc(F)c2c(c1)CCNC2)N1CCCC1 [PFI-2],−2.63
2,CCc1cccc(CC)c1NC(=O)N1Cc2n[nH]c(NC(=O)c3ccc(N4CCN(C)CC4)cc3)c2C1 [PHA-680632],−11.28
3,CN(C)CC(=O)Nc1ccc2[nH]c(=O)c3ccccc3c2c1.Cl [PJ34 hydrochloride],3.696
4,O=C1C(=Cc2cccnc2)C(=O)c2ccccc21 [PRT4165],1.398
5,O=C(CBr)c1ccc(O)cc1 [PTP Inhibitor I],−3.586
6,CCC(C)SSc1ncc[nH]1 (centres unmarked) [PX 12],−7.518
7,"C1=C/COCc2cc(ccc2OCCN2CCCC2)Nc2nccc(n2)-c2cccc(c2)COC/1 [Pacritinib (SB1518), Pacritinib]",−2.391
8,[H]/N=C(/N)N/C(=N/[H])NCCc1ccccc1 [Phenformin HCl],7.32
9,NC(=O)c1ccccn1 [Picolinamide],20.35
10,COc1cccc2c1C(=O)c1c(O)c3c(c(O)c1C2=O)C[C@@](O)(C(=O)CO)C[C@@H]3O[C@H]1C[C@H](N)[C@H](O[C@@H]2CCCCO2)[C@H](C)O1 [Pirarubicin],6.408
11,CC1=CC(=O)c2c(O)cccc2C1=O [Plumbagin],4.102
12,CCN(CC)CCNC(=O)c1ccc(N)cc1 [Procainamide HCl],4.095
13,CNNCc1ccc(C(=O)NC(C)C)cc1 [Procarbazine HCl],1.149
14,O=C(CCCCCCC(=O)Nc1cccnc1)NO [Pyroxamide],60.34
15,CN1CCN(C(=O)CN[C@H]2C[C@@H]2c2ccc(OCc3ccccc3)cc2)CC1.Cl.Cl [RN-1 (hydrochloride)],−2.198
16,NC(=O)c1cccc(NC(=O)/C=C/c2c[nH]c3ccccc23)c1 [RSC-133],26.08
17,C[C@@H]1O[C@@H](O[C@H]2[C@H](O[C@H]3[C@H](O[C@H]4CC[C@]5(C)[C@H]6CC=C7[C@@H]8CC(C)(C)CC[C@]8(C(=O)O)CC[C@@]7(C)[C@]6(C)CC[C@H]5C4(C)C)OC[C@H](O)[C@@H]3O)O[C@H](CO)[C@@H](O)[C@@H]2O)[C@H](O)[C@H](O)[C@H]1O [Raddeanin A],2.609
18,N#Cc1ccc(-c2csc(NN=C3CCCC3)n2)cc1 [Remodelin],13.34
19,"CN(C)Cc1ccc(S(=O)(=O)n2ccc(/C=C/C(=O)NO)c2)cc1 [Resminostat (hydrochloride), Resminostat]",36.33
20,Oc1ccc(C=Cc2cc(O)cc(O)c2)cc1 [Resveratrol],0.9482
21,c1nc2nc(Nc3ccc(N4CCOCC4)cc3)nc(NC3CCCCC3)c2[nH]1 [Reversine],−6.769
22,CS(=O)(=O)O.Cn1cc(C2=C(c3cn(CCCSC(=N)N)c4ccccc34)C(=O)NC2=O)c2ccccc21 [Ro 31-8220 Mesylate],3.048

row,Compound,Non Amp - AMP (POC) 10 uM [POC]
1,"O=C(CCCCCCNC(=O)c1cnc(N(c2ccccc2)c2ccccc2)nc1)NO [Rocilinostat (ACY-1215), Rocilinostat]",32.23
2,CN1C/C=C/CCOc2cccc(c2)-c2ccnc(n2)Nc2cccc(c2)C1 [SB1317],5.059
3,CC(C)N(CCCNC(=O)Nc1ccc(C(C)(C)C)cc1)C[C@H]1O[C@@H](n2cc(Br)c3c(N)ncnc32)[C@H](O)[C@@H]1O [SGC 0946],1.268
4,CN1CCC(CNc2ccc3ncc(-c4cccc(OC(F)(F)F)c4)n3n2)CC1 [SGI-1776 free base],−17.37
5,O=c1[nH]c(=S)[nH]c(-c2ccccc2)c1Cc1c(O)ccc2ccccc12 [SIRT 1/2 Inhibitor IV],18.95
6,O=C1NC(=O)/C(=C/c2cccc(C(F)(F)F)c2)S1 [SMI-4a],−1.184
7,Cl.O=C(Nc1ccccc1-c1cn2c(CN3CCNCC3)csc2n1)c1cnc2ccccc2n1 [SRT1720 HCl],4.809
8,Cc1nc(-c2cccnc2)sc1C(=O)Nc1ccccc1-c1cn2c(CN3CCOCC3)csc2n1 [SRT2104 (GSK2245840)],−1.9
9,O=C(/C=C/c1ccccc1)NC(NC(=S)Nc1ccc(Cl)cc1)C(Cl)(Cl)Cl (centres unmarked) [Sal 003],−16.28
10,CC(C(=O)Nc1cccc(/N=C/c2c(O)ccc3ccccc23)c1)c1ccccc1 (centres unmarked) [Salermide],−13.88
11,O=C(/C=C/c1ccc(O)c2c1[C@H](C(=O)O[C@H](Cc1ccc(O)c(O)c1)C(=O)O)[C@@H](c1ccc(O)c(O)c1)O2)O[C@H](Cc1ccc(O)c(O)c1)C(=O)O [Salvianolic acid B],2.345
12,Cc1cc(C)nc(SCC(=O)Nc2ncc(Cc3cccc4ccccc34)s2)n1 [SirReal2],−3.472
13,Nc1ncnc2c1ncn2[C@@H]1O[C@H](C[C@@H](N)CC[C@H](N)C(=O)O)[C@@H](O)[C@H]1O [Sirefungin],12.42
14,O=C([O-])CCCc1ccccc1.[Na+] [Sodium 4-phenylbutyrate],6.103
15,"CN1CCN(c2nc(C3=C(c4c[nH]c5ccccc45)C(=O)NC3=O)c3ccccc3n2)CC1 [Sotrastaurin (AEB071), Sotrastaurin]",10.63
16,CN[C@@H]1C[C@H]2O[C@@](C)([C@@H]1OC)n1c3ccccc3c3c4c(c5c6ccccc6n2c5c31)C(=O)NC4 [Staurosporine],7.23
17,N#Cc1c(Oc2ccc(F)c(NC(=O)Cc3cccc(C(F)(F)F)c3)c2)ccc2nc(NC(=O)C3CC3)sc12 [TAK-632],−12.18
18,CCS(=O)(=O)c1cccc(-c2cc(C(=O)NC3CCN(C)CC3)c(C)c3[nH]c4ncc(C)cc4c23)c1 [TAK-901],3.351
19,O=C(CCl)Nc1ccc(S(=O)(=O)c2ccc(NC(=O)CCl)cc2)cc1 [TC-E 5003],0.7453
20,Cc1ccc(NC(=O)CCCCCC(=O)Nc2ccccc2N)cc1 [TC-H 106],8.223
21,N#Cc1c(-c2ccccc2)cc(-c2cc(Br)ccc2O)[nH]c1=O [TCS PIM-1 1],0.7424
22,Cc1cnc(Nc2ccc(N3CCN(C)CC3)cc2)nc1Nc1cccc(S(=O)(=O)NC(C)(C)C)c1 [TG101209],15.1

# Same assay, conditions: 10 uM, 48 hrs; average relative cell viability (vs 1% DMSO) of non-amplified cells (OVSAHO, CAOV3) minus that of MYC-HSF1 amplified cells (OVCAR8, OVCAR4); positive = greater response in amplified cells; 10 µM
row,Compound,Non Amp - AMP (POC) 10 uM
1,O=C(/C=C/N1C[C@H]2C[C@@H]1CN2c1ccccn1)c1ccccc1O [PFI-3],12.92 POC
2,COc1ccccc1C(=O)Nc1cc2c(cc1N1CCCC1)n(C)c(=O)n2C [PFI-4],17.43 POC
3,Cc1[nH]c2ccccc2c1CCNCc1ccc(/C=C/C(=O)NO)cc1 [Panobinostat],41.46 POC
4,O=C(O)C(Cc1c[nH]c2ccccc12)N1C(=O)c2ccccc2C1=O (centres unmarked) [RG108],17.36 POC
5,COc1cc(OC)c2c(=O)[nH]c(-c3cc(C)c(OCCO)c(C)c3)nc2c1 [RVX-208],12.33 POC and 7.058 POC
6,"CNCc1ccc(-c2[nH]c3cc(F)cc4c3c2CCNC4=O)cc1 [Rucaparib (AG-014699, PF-01367338), Rucaparib]",0.4948 POC
7,"CNCc1ccc(-c2[nH]c3cc(F)cc4c3c2CCNC4=O)cc1 [Rucaparib (free base), Rucaparib]",8.811 POC
8,"N#CC[C@H](C1CCCC1)n1cc(-c2ncnc3[nH]ccc23)cn1 [Ruxolitinib (INCB018424), Ruxolitinib]",−4.311 POC
9,N#CC[C@H](C1CCCC1)n1cc(-c2ncnc3[nH]ccc23)cn1 [Ruxolitinib phosphate],2.659 POC
10,"CCCCc1nc2cc(/C=C/C(=O)NO)ccc2n1CCN(CC)CC [SB939, Pracinostat]",42.19 POC
11,O=C(CCCCCN1C(=O)c2cccc3cccc(c23)C1=O)NO [Scriptaid],45.24 POC and 29.99 POC

# Same assay, conditions: 10 uM, 48 hrs; average relative cell viability (vs 1% DMSO) of non-amplified cells (OVSAHO, CAOV3) minus that of MYC-HSF1 amplified cells (OVCAR8, OVCAR4); positive = greater response in amplified cells; listed as PFI 3, 10 µM
row,Compound,Non Amp - AMP (POC) 10 uM [POC]
1,O=C(/C=C/N1C[C@H]2C[C@@H]1CN2c1ccccn1)c1ccccc1O [PFI-3],5.077

# Same assay, conditions: 10 uM, 48 hrs; average relative cell viability (vs 1% DMSO) of non-amplified cells (OVSAHO, CAOV3) minus that of MYC-HSF1 amplified cells (OVCAR8, OVCAR4); positive = greater response in amplified cells; listed as PFI 4, 10 µM
row,Compound,Non Amp - AMP (POC) 10 uM [POC]
1,COc1ccccc1C(=O)Nc1cc2c(cc1N1CCCC1)n(C)c(=O)n2C [PFI-4],−0.5403

# Same assay, conditions: 10 uM, 48 hrs; average relative cell viability (vs 1% DMSO) of non-amplified cells (OVSAHO, CAOV3) minus that of MYC-HSF1 amplified cells (OVCAR8, OVCAR4); positive = greater response in amplified cells; listed as Panobinostat (LBH589), 10 µM
row,Compound,Non Amp - AMP (POC) 10 uM [POC]
1,Cc1[nH]c2ccccc2c1CCNCc1ccc(/C=C/C(=O)NO)cc1 [Panobinostat],27.26

# Same assay, conditions: 10 uM, 48 hrs; average relative cell viability (vs 1% DMSO) of non-amplified cells (OVSAHO, CAOV3) minus that of MYC-HSF1 amplified cells (OVCAR8, OVCAR4); positive = greater response in amplified cells; listed as Pracinostat (SB939), 10 µM
row,Compound,Non Amp - AMP (POC) 10 uM [POC]
1,"CCCCc1nc2cc(/C=C/C(=O)NO)ccc2n1CCN(CC)CC [SB939, Pracinostat]",22.93

# Same assay, conditions: 10 uM, 48 hrs; average relative cell viability (vs 1% DMSO) of non-amplified cells (OVSAHO, CAOV3) minus that of MYC-HSF1 amplified cells (OVCAR8, OVCAR4); positive = greater response in amplified cells; listed as RG 108, 10 µM
row,Compound,Non Amp - AMP (POC) 10 uM [POC]
1,O=C(O)C(Cc1c[nH]c2ccccc12)N1C(=O)c2ccccc2C1=O (centres unmarked) [RG108],−2.615
